The values that follow come from US10370433B2, “Compositions and methods for diagnosis and treatment of cancer” (BIONTECH AG, priority 2015, dated 2019).

Experiment [1] addresses T1, DPP IV (Homo sapiens, UniProt P27487).
T1 construct: purchased R&D Systems
It counts as binding.

The target in experiment [2] is T2, human Seprase (Homo sapiens, UniProt Q12884).
T2 sequence (Q12884 26-760): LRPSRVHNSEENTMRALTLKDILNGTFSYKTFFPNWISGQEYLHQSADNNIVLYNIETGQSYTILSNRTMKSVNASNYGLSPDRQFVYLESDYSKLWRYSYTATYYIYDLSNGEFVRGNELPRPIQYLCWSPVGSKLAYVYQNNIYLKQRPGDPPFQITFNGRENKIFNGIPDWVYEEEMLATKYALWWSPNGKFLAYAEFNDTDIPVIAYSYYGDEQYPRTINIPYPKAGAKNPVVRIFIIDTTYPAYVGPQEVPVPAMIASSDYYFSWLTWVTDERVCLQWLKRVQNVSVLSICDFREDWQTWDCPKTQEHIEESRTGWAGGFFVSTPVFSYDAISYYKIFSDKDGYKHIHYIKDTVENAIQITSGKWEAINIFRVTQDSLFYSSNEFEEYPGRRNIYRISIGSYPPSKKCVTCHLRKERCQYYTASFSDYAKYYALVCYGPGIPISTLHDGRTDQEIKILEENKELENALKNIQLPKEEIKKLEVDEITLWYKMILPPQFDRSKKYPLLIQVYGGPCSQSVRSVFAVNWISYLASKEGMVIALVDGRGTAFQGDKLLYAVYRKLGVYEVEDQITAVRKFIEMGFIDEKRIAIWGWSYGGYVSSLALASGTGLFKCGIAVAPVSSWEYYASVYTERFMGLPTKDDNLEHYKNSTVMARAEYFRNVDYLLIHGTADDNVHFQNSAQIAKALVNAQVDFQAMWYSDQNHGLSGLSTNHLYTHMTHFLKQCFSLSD
It is filed as binding. Also noted: named pCEP4-IgKappa-huSeprase-coCHO_26-760aa-H6 and used for the generation of recombinant soluble human Seprase (rhuSeprase); mouse Ig kappa-chain V-J2-C secretion signal (N, cleaved yes); made in house; host or cells: FreeStyle CHO-S cells (transient transfection; purified from supernatant by Ni-chelate and SEC).

Experiment [3] concerns the target T2, human Seprase.
In experiment [4] the target is T3, murine homologue of Seprase (Mus musculus, UniProt P97321).
T3 construct: expressed in transfected cells; host or cells: CHO-K1
T3 sequence (P97321 1-761): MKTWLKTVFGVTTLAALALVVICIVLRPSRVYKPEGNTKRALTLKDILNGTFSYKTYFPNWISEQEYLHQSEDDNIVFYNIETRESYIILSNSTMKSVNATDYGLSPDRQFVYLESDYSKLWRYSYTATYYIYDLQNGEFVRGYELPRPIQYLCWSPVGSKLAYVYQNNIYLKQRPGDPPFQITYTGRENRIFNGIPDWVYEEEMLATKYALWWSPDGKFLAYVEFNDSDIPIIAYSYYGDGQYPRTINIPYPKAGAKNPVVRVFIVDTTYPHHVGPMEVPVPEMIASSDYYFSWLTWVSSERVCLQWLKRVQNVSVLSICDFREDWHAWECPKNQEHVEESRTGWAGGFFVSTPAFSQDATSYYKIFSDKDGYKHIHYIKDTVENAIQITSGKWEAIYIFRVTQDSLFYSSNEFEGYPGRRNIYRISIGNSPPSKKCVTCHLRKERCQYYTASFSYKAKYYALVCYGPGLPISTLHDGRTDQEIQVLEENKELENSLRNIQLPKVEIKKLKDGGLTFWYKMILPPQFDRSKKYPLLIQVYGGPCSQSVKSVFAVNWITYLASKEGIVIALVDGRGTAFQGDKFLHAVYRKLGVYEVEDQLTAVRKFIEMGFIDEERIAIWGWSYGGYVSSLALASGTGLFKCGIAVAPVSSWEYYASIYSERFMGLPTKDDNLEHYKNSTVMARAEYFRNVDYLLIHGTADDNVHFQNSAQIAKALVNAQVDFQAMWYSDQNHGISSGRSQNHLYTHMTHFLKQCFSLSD
It is filed as cell-based.

The target of experiment [5] is T4, murine Seprase expressing tumor cells (CAFs in CT26 tumor sections) (Mus musculus, UniProt P97321).
T4 construct: from tissue; host or cells: paraffin sections of subcutaneous CT26 tumors grown in BALB/c mice (stromal CAFs)
T4 sequence (P97321 1-761): T3 sequence (P97321 1-761)
Description: Staining of paraffin sections of CT26 tumors.

Experiment [6] deals with T5, recombinant human Seprase (rhuSeprase) (Homo sapiens, UniProt Q12884).
T5 construct: named pCEP4-IgKappa-huSeprase-coCHO_26-760aa-H6 and used for the generation of recombinant soluble human Seprase (rhuSeprase); mouse Ig kappa-chain V-J2-C secretion signal (N, cleaved yes); made in house; host or cells: FreeStyle CHO-S cells (transient transfection; purified from supernatant by Ni-chelate and SEC)
T5 sequence (Q12884 26-760): T2 sequence (Q12884 26-760)
Description: Surface plasmon resonance (Biacore T100) on immobilized rhuSeprase. It counts as binding.

Positions of bridges follow the written chain, without caps; N, C: chain ends. Residues, ends and D or L forms follow the SMILES beside them.

T1 sequence (P27487 whole entry): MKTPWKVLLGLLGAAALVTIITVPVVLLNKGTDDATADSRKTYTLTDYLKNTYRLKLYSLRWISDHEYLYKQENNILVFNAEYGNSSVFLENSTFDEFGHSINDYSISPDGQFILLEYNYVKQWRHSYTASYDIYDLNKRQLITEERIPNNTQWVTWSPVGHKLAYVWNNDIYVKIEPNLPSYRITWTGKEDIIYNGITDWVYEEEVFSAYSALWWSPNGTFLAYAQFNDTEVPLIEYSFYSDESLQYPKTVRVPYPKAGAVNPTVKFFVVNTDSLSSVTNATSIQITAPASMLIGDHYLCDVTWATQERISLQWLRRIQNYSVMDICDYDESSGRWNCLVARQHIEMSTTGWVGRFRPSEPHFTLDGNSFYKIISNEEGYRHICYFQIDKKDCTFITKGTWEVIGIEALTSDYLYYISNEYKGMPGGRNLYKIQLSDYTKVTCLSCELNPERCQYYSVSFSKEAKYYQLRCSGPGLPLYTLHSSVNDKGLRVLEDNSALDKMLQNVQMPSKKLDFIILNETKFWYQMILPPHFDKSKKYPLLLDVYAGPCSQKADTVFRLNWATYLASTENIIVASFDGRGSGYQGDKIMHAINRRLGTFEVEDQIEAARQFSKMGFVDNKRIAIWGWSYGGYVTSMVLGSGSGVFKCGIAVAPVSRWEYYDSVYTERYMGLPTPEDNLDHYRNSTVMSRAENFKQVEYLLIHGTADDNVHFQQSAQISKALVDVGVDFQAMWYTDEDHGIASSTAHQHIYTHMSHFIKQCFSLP

For the compound `CC[C@H](C)[C@@H]1NC(=O)[C@@H]2CSSC[C@H](NC(=O)[C@H](CCCCN)NC(=O)CN)C(=O)N3CCC[C@H]3C(=O)N[C@@H](Cc3ccc(O)cc3)C(=O)N[C@@H](CO)C(=O)N[C@@H](CC(N)=O)C(=O)N[C@@H](Cc3c[nH]c4ccccc34)C(=O)N[C@@H]([C@@H](C)O)C(=O)N3CCC[C@H]3C(=O)NCC(=O)N[C@@H](CCCNC(=N)N)C(=O)NCC(=O)N3CCC[C@H]3C(=O)N[C@@H](CC(=O)O)C(=O)N[C@H]3CSSC[C@H](NC1=O)C(=O)N[C@@H](CCCNC(=N)N)C(=O)NCC(=O)N[C@@H](CC(N)=O)C(=O)NCC(=O)N[C@@H](Cc1ccc(O)cc1)C(=O)N[C@H](C(=O)NCC(=O)O)CSSC[C@H](NC(=O)[C@H](CC(=O)O)NC(=O)[C@H](CO)NC(=O)[C@H](CC(=O)O)NC(=O)[C@H](CCCNC(=N)N)NC(=O)[C@H](CCCNC(=N)N)NC3=O)C(=O)N1CCC[C@H]1C(=O)NCC(=O)N[C@@H](CCCNC(=N)N)C(=O)N2` [MC-FA-010] (H-GKCPYSNWTPGRGPDCRRDSDCPGRCICRGNGYCG-OH; disulfide 3-26, 16-28, 22-34), in experiment [1], the “binding to DPP IV” value is on record as “very weak signal”. Besides, in experiment [2], the “EC50, binding affinity to human Seprase” value was “nanomolar range”; the “binding to Seprase” value was “binds strongly and selectively”. Moreover, the “IC50, binding affinity to human Seprase” value in experiment [3] is “nanomolar range”. Further, in experiment [4], the “cross-reactivity with the murine homologue” value is “cross-reactive”. Besides, the “binding to CT26 tumor section” value in experiment [5] is listed as “binds on CAFs”. Moreover, the “kd” value in experiment [6] is 0.2006 s⁻¹. Further, the kon in experiment [6] (read-out: ka (1/Ms)) turned out to be 1.53e+06 M⁻¹ s⁻¹.
